Earlier results, collected in US20060045865A1, “Controlled regional oral delivery” (Spherics, Inc., priority 2004, published 2006).
Where two headings read alike, the source gives them in different places.

Experiments:
[1] = not given; remark: listed apart in the source
[2] = system: H. pylori; settings: pH 5.5

Row | Compound | Bioavailability (oral) | Solubility in water [1] | also measured
1 | 1-[(4R,5s)-5-[(2-aminoethyl)amino]-N^2-(10,12-dimethyl-1-oxotetradecyl)-4-hydroxy-L-ornithine]-5-[(3IRI)-3-hydroxy-L-ornithine]pneumocandin B0 diacetate (salt) [Caspofungin acetate] | 0% | freely soluble | –
2 | C#C[C@]1(O)CC[C@H]2[C@@H]3CCC4=Cc5oncc5C[C@]4(C)[C@H]3CC[C@@]21C [Danazol, 17a-Pregna-2,4-dien-20-yno[2,3-d]-isoxazol-17-ol] | – | – | Half-life (oral administration): 4 to 5 h; Time to peak plasma concentration (oral dose): ≤ 2 h
3 | NC(=O)N1c2ccccc2C=Cc2ccccc21 [Carbamazepine, 5H-dibenz[b,f]azepine-5-carboxamide] | – | – | Bioavailability (in vivo, po): 89%
4 | Nc1nc2c(ncn2COCCO)c(=O)[nH]1 [Acyclovir, 2-amino-1,9-dihydro-9-[(2-hydroxyethoxy)methyl]-6H-purin-6-one] | 10-20% | – | –
5 | NCC1(CC(=O)O)CCCCC1 [Gabapentin] | – | – | Bioavailability (900 mg dose, given three times a day): ≤ 60%
6 | C=CC[C@@H]1/C=C(\C)C[C@H](C)C[C@H](OC)[C@H]2O[C@@](O)(C(=O)C(=O)N3CCCC[C@H]3C(=O)O[C@H](/C(C)=C/[C@@H]3CC[C@@H](O)[C@H](OC)C3)[C@H](C)[C@@H](O)CC1=O)[C@H](C)C[C@@H]2OC [Tacrolimus] | – | practically insoluble | Absolute bioavailability (5 mg dose taken twice a day): approximately 17%
7 | CC(C)[C@H](N)C(=O)OCCOCn1cnc2c(=O)[nH]c(N)nc21 [Valacyclovir] | approximately 50% | greater solubility in water than acyclovir | –
8 | CC(=O)O[C@H]1C(=O)[C@@]2(C)[C@H]([C@H](OC(=O)c3ccccc3)[C@]3(O)C[C@H](OC(=O)[C@H](O)[C@@H](NC(=O)c4ccccc4)c4ccccc4)C(C)=C1C3(C)C)[C@]1(OC(C)=O)CO[C@@H]1C[C@@H]2O [Paclitaxel] | – | insoluble | –
9 | CC[C@H]1OC(=O)[C@H](C)[C@@H](O[C@H]2C[C@@](C)(OC)[C@@H](O)[C@H](C)O2)[C@H](C)[C@@H](O[C@@H]2O[C@H](C)C[C@H](N(C)C)[C@H]2O)[C@](C)(OC)C[C@@H](C)C(=O)[C@H](C)[C@@H](O)[C@]1(C)O [clarithromycin] | – | – | Decrease in activity [2]: > 16 fold
